Observed efficacy data for two compounds are collected here from patent publication US20120238447A1 (priority 2009, published 2012).

In one assay the test system is Pyricularia oryzae. In kind it is cell-based. To be noted: MTP, 405 nm, 7 days after inoculation, 18° C, efficacy from relative growth in %.
The subject of the next assay is Septoria tritici. As to the kind of experiment: Activity against leaf blotch on wheat caused by Septoria tritici (microtiter plate test). The class given is cell-based. To be noted: MTP, 405 nm, 7 days after inoculation, 18° C.

Each structure is given as a SMILES string. Like-named read-outs stand apart in the source and are kept apart here.

`COC(=O)N(OC)c1ccccc1COc1ccn(-c2ccc(Cl)cc2)n1` [pyraclostrobin]: the Observed efficacy with Pyricularia oryzae (pyraclostrobin alone, 0.004 ppm) is reported as 23; in the assay with Septoria tritici (Pyraclostrobin alone, 0.001 ppm), 7.

On to `CCOC(=O)CSc1nc(C(C)(C)C)nn1C(=O)N(C)C` [triazamat, triazamate], for which the Observed efficacy in the assay on Pyricularia oryzae (triazamat alone, 1 ppm) is 4; with Septoria tritici (Triazamat alone, 0.25 ppm) it was 4.
